What was measured:
[1] = test system: PAB DE (polyclonal ion-exchange purified HbAlc antibody); experiment: Inhibition of osmium mediator label current with antibody; type: binding, sheep
Procedure: (§1) Polyclonal DE (ion-exchange) purified sheep antibody is used in the TinaQuant HbAlc assay. IS (immunosorbent) antibody is prepared using standard IS purification methodology. Samples of a monoclonal antibody were also obtained for evaluation. Inhibition curves were performed in solution with all mixing occurring in microcentrifuge tubes. Inhibition curves with the three hemoglobin Alc antibodies (PAB IS, PAB DE, and MAB) were generated by fixing OS—DSG—Alc at 5 μM and varying the antibody concentration. […] From the inhibition curves we were able to select reasonable concentrations of antibody for maximum reversal with Alc samples.
(§2) While these feasibility studies for a HbAlc immunoassay used an enzyme mediated amplification method. (Glucdor/PQQ/glucose was used to regenerate reduced mediator after oxidation at the electrode surface providing a higher diffusion controlled current is given by the cottrell equation), they are considered to be indicative of results attainable with the use of IDA electrodes with bipotentiostatic control in accordance with this invention.

[2] = test system: PAB IS (polyclonal immunosorbent purified HbAlc antibody); experiment: as above; type: binding, sheep
Text: 3. Antibodies for the analytes (HbAlc and HbA0) which react specifically with the N-terminal peptides which have been incorporated into the conjugate are provided by standard methods for producing polyclonal antibodies. In this case, sheep were immunized with carrier proteins to which were conjugated the synthetic peptide sequences for HbAlc and HbA0. Following the appropriate immunization schedule, the sheep were bled, and the antibody isolated from the blood via ion exchange chromatography, followed by immunosorbent purification on a column of the same N-terminal peptide with a different linker.
as §1
While these feasibility studies for a HbAlc immunoassay used an enzyme mediated amplification method. […]

[3] = Storage stability of osmium mediator-peptide conjugates; conditions: for Stability in solution: stored as solution
Procedure: Stability of the mediator labels were also evaluated by monitoring % inhibition values over time.

[4] = test system: MAB (monoclonal HbAlc antibody); experiment: Inhibition of osmium mediator label current with antibody; type: binding
Procedure: as §1, §2

[5] = target: glucose oxidase (Aspergillus niger, UniProt P13006); conditions: with glucose oxidase; cited from earlier work
Chain of glucose oxidase (P13006 17-605, species assumed): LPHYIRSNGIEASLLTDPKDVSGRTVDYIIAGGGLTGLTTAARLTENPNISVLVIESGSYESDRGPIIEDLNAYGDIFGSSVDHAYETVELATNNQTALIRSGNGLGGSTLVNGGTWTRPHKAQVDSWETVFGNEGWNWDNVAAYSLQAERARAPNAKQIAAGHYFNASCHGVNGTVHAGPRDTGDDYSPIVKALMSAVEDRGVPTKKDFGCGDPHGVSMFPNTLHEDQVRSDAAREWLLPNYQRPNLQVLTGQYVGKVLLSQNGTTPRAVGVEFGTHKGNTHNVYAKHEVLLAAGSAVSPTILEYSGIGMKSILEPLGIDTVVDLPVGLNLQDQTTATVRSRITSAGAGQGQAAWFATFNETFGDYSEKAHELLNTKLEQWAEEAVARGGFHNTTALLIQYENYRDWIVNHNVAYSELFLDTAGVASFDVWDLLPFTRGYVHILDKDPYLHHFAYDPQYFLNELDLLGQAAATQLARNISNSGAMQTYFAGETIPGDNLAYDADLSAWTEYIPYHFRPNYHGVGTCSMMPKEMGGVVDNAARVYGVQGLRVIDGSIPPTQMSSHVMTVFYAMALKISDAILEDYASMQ

[6] = target: T1, HbAlc epitope of hemoglobin in lysed blood (Homo sapiens, UniProt P68871); experiment: Blood denaturing for electrochemical HbAlc immunoassay
T1 construct: from tissue; host or cells: whole blood, lysed (freeze/thaw) and denatured
T1 sequence (P68871 2-147 limits assumed): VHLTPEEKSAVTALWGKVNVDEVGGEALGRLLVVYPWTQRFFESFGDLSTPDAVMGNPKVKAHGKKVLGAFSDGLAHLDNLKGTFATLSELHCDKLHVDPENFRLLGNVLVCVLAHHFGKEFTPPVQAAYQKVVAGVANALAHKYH
Text: Blood lysis is necessary to release the hemoglobin followed by denaturing to expose the HbAlc epitope. Lysis can easily be accomplished via surfactants, osmotic effects of dilution with water, and directly by many denaturants. […] Conversely, denaturing the lysed blood with a variety of known denaturants to expose the HbAlc epitope has shown significant suppression of the electrochemical response, inhibiting measurement of an HbAlc dose response.
Denaturing the sample for antibody recognition without severely fouling the electrode surface is important for successful development of an HbAlc immunoassay. Although LiSCN has been used almost exclusively to show feasibility, it has many limitations that would hinder its use in the disposable. Citric acid, a solid at RT may offer benefits as a denaturant if it could be dried onto a strip followed by a diluent to adjust the pH to neutral. Acid or base blood denaturing followed by a final pH adjustment with a buffered diluent is an area worth further evaluation. One problem that was initially encountered was precipitation in adjusting the pH back to neutral, which can be overcome by using a different buffer or with the addition of surfactants.

[7] = test system: Sheep B<HBA0>; experiment: Inhibition of osmium mediator label current with antibody; type: binding
Text: HbAlc assay requires measuring both Al c concentration and total hemoglobin concentration and reports the results as a ratio of these two measurements (%HbAlc). It is advantageous to assay both Alc and total hemoglobin using same principle because ratioing would minimize biases due to environmental effects. Thus antibody has been raised to bind specifically to hemoglobins with unglycosylated N-terminus, i.e. with an epitope sequence of Val-His-Leu-Thr(SEQ ID NO:5). Similarly, nonnative amino acid is added to the sequence to facilitate conjugation. The peptides used for total hemoglobin measurement is termed as A0 peptide. A0 peptides that have been used in the preparation of Os mediator-peptide conjugates include Val-His-Leu-Thr-Cys(SEQ ID NO:6) and Val-His-Leu-Thr-Lys(SEQ ID NO:7).

[8] = test system: Zymed rabbit antibodies; experiment: as above; type: binding
Procedure: (§3) Mediator concentration dose response, inhibition with antibody and reversal with a BSA—Alc polyhaptan were evaluated and summarized in Table 5.

[9] = test system: HbA0 antibody; experiment: Inhibition reversal with A0HB-peptide#1; type: binding
Procedure: as §3

## CC(C)CC(NC(=O)C(Cc1cnc[nH]1)NC(=O)C(NCC1(O)OCC(O)C(O)C1O)C(C)C)C(=O)NC(C(=O)NC(CCCCNC(=O)CCCC(=O)NCCc1c[n+]([Os]23([Cl])([n+]4ccccc4-c4cccc[n+]42)[n+]2ccccc2-c2cccc[n+]23)c[nH]1)C(=O)O)C(C)O (stereo not drawn) [Os-DSG-Alc]
[1]
  Inhibition with Antibody PAB DE: PAB DE (≦87%)
[2]
  Inhibition with Antibody PAB IS: PAB IS (≦91%)
[3]; lyophilized
  Stability in lyophilized form: stable
[3]; −20° C., 40 and 80 μM
  Stability frozen in solution: stable
[4]
  Inhibition with Antibody MAB: MAB (≦78%)

## bis(bipyridyl) imidazolyl chloroosmium
[5]
  mediation kinetics relative to ferricyanide: about 500 times faster

## [O-][Cl+3]([O-])([O-])O [Perchloric Acid]
[6]
  Evidence of blood denaturing: Evidence of blood denaturing was seen by all: “solution

## CC(C)CC(NC(=O)C(Cc1cnc[nH]1)NC(=O)C(N)C(C)C)C(=O)NC(C(=O)NC(CCCCNC(=O)CCCCCN1C(=O)CC(SCC(=O)NCCc2c[n+]([Os]34([Cl])([n+]5ccccc5-c5cccc[n+]53)[n+]3ccccc3-c3cccc[n+]34)c[nH]2)C1=O)C(=O)O)C(C)O (stereo not drawn) [Os-SATA-A0]
[7]
  Inhibition with Antibody Sheep B<HBA0>: ≤ 84%
[3]
  Stability in solution: unstable in solu-
[8]
  Inhibition with Zymed rabbit antibodies: No
[9]
  Reversal: No

## N#C[S-].[K+] [KSCN]
[6]
  Blood HbAlc dose response with denatured blood: Initial work did not show a dose response with KSCN

## O=S(=O)(O)O [Sulfuric Acid]
[6]
  Evidence of blood denaturing: Evidence of blood denaturing was seen by all: “solution

## N#C[S-].[Li+] [LiSCN]
[6]
  Blood HbAlc dose response with denatured blood: able to expose the Alc epitope and minimize protein fouling enough to measure an HbAlc dose response

## Cl [Hydrochloric Acid]
[6]
  Evidence of blood denaturing: Evidence of blood denaturing was seen by all: “solution

## CC(C)CC(NC(=O)C(Cc1cnc[nH]1)NC(=O)C(NCC1(O)OCC(O)C(O)C1O)C(C)C)C(=O)NC(C(=O)NC(CCCCNC(=O)CCCCCN1C(=O)CC(SCC(=O)NCCc2c[n+]([Os]34([Cl])([n+]5ccccc5-c5cccc[n+]53)[n+]3ccccc3-c3cccc[n+]34)c[nH]2)C1=O)C(=O)O)C(C)O (stereo not drawn) [Os-SATA-Alc]
[2]
  Inhibition with Antibody PAB IS: PAB IS (≦44%)
[3]
  Stability in solution: Stability similar

## O=C(O)CC(O)(CC(=O)O)C(=O)O [citric acid]
[6]
  Blood HbAlc dose response with denatured blood: able to expose the Alc epitope and minimize protein fouling enough to measure an HbAlc dose response
  Evidence of blood denaturing: Evidence of blood denaturing was seen by all: “solution

## CCCCCCCCCCCCCC[N+](C)(C)C.[Br-] [TTAB, Tetra decyltrimethyl ammonium bromide]
[6]
  Evidence of blood denaturing: Evidence of denaturing: “solution turned green”

## [Na+].[OH-] [NaOH]
[6]
  Evidence of blood denaturing: Evidence of denaturing: “solution turned brown.”
